“And” between values parts separate entries of the source, which are not always exact repeats. Equal entries are not always repeated. Where two headings read alike, the source gives them in different places.
Key:
[1] = test system: FGFR4-amplified Hep3B hepatocellular carcinoma cells; assay: Cell proliferation assay (SRB); assay type: cell-based; conditions: read-out: Cellular Anti-proliferative IC50, Hep3B
[2] = test system: FGFR3-amplified SW780 bladder cancer cells; assay: Cell proliferation assay (SRB)
[3] = test system: FGFR2-amplified SUM52 breast cancer cells; assay: Cell proliferation assay (SRB); assay type: cell-based
FGFR4 = target: T1, FGFR4 (Homo sapiens, UniProt P22455); assay: Isolated enzyme FRET-based Z-Lyte kinase inhibition assay; assay type: biochemical; conditions: means from 3 independent experiments; read-out: Isolate Enzyme Inhibition IC50, FGFR4
T1 construct: purchased Invitrogen
Method: (§1) FGFR1-4 and the Z-Lyte Kinase Assay Kit were purchased from Invitrogen. The concentration gradients from 5.1×10^−11 to 1.0×10^−6 mol/L were used for all the test compounds. The experiments were performed according to the instructions of the manufacturer.
(§2) FGFR1-4 isolated enzyme activity was determined using the FRET-based Z-Lyte kinase inhibition assay. The data are the means from 3 independent experiments.

FGFR3 = target: T2, FGFR3 (Homo sapiens, UniProt P22607); assay: as above; assay type: biochemical; conditions: means from 3 independent experiments; read-out: Isolate Enzyme Inhibition IC50, FGFR3
T2 construct: purchased Invitrogen
Method: as §1, §2

FGFR2 = target: T3, FGFR2 (Homo sapiens, UniProt P21802); assay: as above; assay type: biochemical; conditions: means from 3 independent experiments; read-out: Isolate Enzyme Inhibition IC50, FGFR2
T3 construct: purchased Invitrogen
Method: as §1, §2

[4] = test system: SW780 (FGFR3-amplified bladder cancer) xenograft; assay: Anti-tumour activity, SW780 xenograft; assay type: in vivo, NIH-III nude mice; conditions: 30 umol/kg, q3dx4, IP
Method: Specific pathogen-free homozygous female NIH-III nude mice (Charles River Laboratories, Wilmington, Mass.) were inoculated subcutaneously with a single cell suspension of SW780 cells (8×10^6 cells/100 μL with Matrigel; right flank) or SNU-16 cells (10×10^6 cells/100 μL; right flank). When tumour xenografts were established (typically 7-14 days for SW780 and 21-28 days for SNU-16) mice were randomized to treatment groups. Test compounds of the present invention were prepared in Water for Injection (WFI). Mice were dosed by intraperitoneal injection (0.01-0.03 ml/g) using the stated schedules and dose levels. […] Tumour size and body weights were measured at regular intervals. Tumour volume was calculated as […] (length×width^2)/6.

H520 cells = assay: Oxic and anoxic anti-proliferative activity of the prodrugs; conditions: for Hypoxic Cytotoxicity Ratio (HCR), H520: ratio of oxic and anoxic IC50
SW780 cells = assay: as above; assay type: cell-based; conditions: Homo sapiens, SW780; oxic conditions; read-out: Cellular Anti-proliferative IC50, SW780, Oxic
SUM52 cells = assay: as above; conditions: for Hypoxic Cytotoxicity Ratio (HCR), SUM52: ratio of oxic and anoxic IC50
[5] = read-out: Cellular Anti-proliferative IC50, SW780, 5 days drug exposure
[6] = read-out: Cellular Anti-proliferative IC50, SUM52, 5 days drug exposure
[7] = read-out: Cellular Anti-proliferative IC50, H520, Oxic, oxic conditions
[8] = read-out: Cellular Anti-proliferative IC50, SUM52, Anoxic, 4 hours of anoxia, remainder of assay oxic
[9] = read-out: Cellular Anti-proliferative IC50, SUM52, Oxic, oxic conditions
[10] = read-out: Cellular Anti-proliferative IC50, H520, Anoxic, 4 hours of anoxia, remainder of assay oxic

T2 sequence (P22607 23-806): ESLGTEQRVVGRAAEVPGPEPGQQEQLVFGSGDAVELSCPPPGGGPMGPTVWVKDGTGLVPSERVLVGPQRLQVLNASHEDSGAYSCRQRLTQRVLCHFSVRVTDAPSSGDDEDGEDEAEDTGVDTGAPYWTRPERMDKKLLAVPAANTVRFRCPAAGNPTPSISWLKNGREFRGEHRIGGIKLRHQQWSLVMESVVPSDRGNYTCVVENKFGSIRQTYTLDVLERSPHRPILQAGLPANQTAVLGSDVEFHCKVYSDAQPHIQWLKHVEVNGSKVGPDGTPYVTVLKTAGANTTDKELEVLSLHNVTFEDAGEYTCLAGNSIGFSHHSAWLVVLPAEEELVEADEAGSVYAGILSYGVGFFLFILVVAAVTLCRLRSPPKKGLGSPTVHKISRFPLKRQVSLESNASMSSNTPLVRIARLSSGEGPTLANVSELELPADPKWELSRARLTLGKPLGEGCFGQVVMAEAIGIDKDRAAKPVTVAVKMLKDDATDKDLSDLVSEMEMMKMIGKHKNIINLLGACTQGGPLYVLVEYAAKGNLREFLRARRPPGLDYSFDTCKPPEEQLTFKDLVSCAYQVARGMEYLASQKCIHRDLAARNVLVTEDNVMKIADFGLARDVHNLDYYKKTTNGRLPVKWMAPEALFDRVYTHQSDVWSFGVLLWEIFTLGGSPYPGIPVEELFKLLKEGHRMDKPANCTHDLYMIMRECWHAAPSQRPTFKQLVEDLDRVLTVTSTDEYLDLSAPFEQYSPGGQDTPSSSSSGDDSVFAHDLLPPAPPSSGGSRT
T1 sequence (P22455 22-802): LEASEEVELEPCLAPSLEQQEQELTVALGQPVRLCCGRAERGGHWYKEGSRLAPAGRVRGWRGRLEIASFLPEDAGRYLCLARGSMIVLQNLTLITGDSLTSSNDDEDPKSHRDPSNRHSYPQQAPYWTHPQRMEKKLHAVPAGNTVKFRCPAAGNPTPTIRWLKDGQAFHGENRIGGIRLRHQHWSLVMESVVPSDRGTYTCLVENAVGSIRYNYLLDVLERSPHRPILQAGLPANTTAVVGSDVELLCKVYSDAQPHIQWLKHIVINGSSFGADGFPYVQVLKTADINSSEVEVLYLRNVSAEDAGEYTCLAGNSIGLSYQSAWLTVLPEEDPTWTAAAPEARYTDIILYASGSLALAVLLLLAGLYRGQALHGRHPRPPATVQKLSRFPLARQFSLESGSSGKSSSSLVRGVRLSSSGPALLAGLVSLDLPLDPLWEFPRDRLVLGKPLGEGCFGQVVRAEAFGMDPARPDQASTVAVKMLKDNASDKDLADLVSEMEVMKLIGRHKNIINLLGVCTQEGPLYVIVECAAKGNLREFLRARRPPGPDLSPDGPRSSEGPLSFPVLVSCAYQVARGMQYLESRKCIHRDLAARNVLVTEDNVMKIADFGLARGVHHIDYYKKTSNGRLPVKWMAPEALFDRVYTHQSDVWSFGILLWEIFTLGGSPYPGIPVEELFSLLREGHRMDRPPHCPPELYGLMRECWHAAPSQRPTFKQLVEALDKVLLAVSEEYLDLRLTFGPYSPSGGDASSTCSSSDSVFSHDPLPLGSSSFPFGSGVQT
T3 sequence (P21802 22-821): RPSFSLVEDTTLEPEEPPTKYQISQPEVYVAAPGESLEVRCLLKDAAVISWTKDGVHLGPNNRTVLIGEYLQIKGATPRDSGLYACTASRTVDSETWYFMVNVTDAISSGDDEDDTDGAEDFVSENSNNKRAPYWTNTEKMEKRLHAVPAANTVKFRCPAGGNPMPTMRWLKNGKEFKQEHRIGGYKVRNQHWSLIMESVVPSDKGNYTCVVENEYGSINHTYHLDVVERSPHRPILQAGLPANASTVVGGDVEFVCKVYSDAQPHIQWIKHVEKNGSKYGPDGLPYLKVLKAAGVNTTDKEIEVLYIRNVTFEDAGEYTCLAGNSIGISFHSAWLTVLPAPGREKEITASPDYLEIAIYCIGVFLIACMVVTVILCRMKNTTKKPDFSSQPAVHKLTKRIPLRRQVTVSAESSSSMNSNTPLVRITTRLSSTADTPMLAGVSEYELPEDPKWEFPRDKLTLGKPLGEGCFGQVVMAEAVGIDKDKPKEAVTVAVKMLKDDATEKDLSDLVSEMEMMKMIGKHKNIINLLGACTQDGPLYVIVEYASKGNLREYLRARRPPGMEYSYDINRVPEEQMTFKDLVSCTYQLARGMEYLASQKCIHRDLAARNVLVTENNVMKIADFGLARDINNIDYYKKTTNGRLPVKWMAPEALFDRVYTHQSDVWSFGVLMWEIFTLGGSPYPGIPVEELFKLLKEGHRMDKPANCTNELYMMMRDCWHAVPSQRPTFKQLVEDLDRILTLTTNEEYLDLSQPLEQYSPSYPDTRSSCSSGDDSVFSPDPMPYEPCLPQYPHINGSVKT

| Structure (SMILES) | IC50 (FGFR4) | IC50 (FGFR3) | anti-tumour activity (median tumour growth delay) [4] | IC50 (H520 cells; [7]) | IC50 (SW780 cells) | Hypoxic Cytotoxicity Ratio (HCR), SUM52 (SUM52 cells) | IC50 (SUM52 cells; [8]) | IC50 (SUM52 cells; [9]) | other results |
| --- | --- | --- | --- | --- | --- | --- | --- | --- | --- |
| CNc1ncc2c(n1)N([C@H]1CCCN(C(=O)/C=C/CN(C)C)C1)C(=O)N(c1c(Cl)c(OC)cc(OC)c1Cl)C2 [Compound 100, (S,E)-3-(2,6-dichloro-3,5-dimethoxyphenyl)-1-(1-(4-(dimethylamino)but-2-enoyl)piperidin-3-yl)-7-(methylamino)-3,4-dihydropyrimido[4,5-d]pyrimidin-2(1H)-one] |  |  |  |  |  |  |  |  | IC50 ([1]; Homo sapiens, Hep3B): 245 nM; IC50 [2, 5]: 28 nM; IC50 [3, 6]: 3.3 nM |
| CNc1ncc2c(n1)N([C@H]1CCCN(C(=O)/C=C/CN(C)C)C1)C(=O)N(c1c(Cl)c(OC)cc(OC)c1Cl)C2 [Compound 101, (S,E)-3-(2,6-dichloro-3,5-dimethoxyphenyl)-1-(1-(4-(dimethylamino)but-2-enoyl)piperidin-3-yl)-7-(methylamino)-3,4-dihydropyrimido[4,5-d]pyrimidin-2(1H)-one] | < 100 nM |  |  |  |  |  |  |  | IC50 [1]: 163 nM; IC50 [2, 5]: 59 nM; IC50 [3, 6]: 9 nM |
| CNc1ncc2c(n1)N([C@@H]1CCN(C(=O)/C=C/CN(C)C)C1)C(=O)N(c1c(Cl)c(OC)cc(OC)c1Cl)C2 [Compound 102, (R,E)-3-(2,6-dichloro-3,5-dimethoxyphenyl)-1-(1-(4-(dimethylamino)but-2-enoyl)pyrrolidin-3-yl)-7-(methylamino)-3,4-dihydropyrimido[4,5-d]pyrimidin-2(1H)-one] | > 1000 nM | 703 nM |  |  |  |  |  |  | IC50 ([1]; Homo sapiens, Hep3B): 1430 nM; IC50 ([2]; Homo sapiens, SW780, 120 h, read-out: Cellular Anti-proliferative IC50, SW780, 5 days drug exposure): 700 nM; IC50 ([3]; SUM52, 120 h, read-out: Cellular Anti-proliferative IC50, SUM52, 5 days drug exposure): 51 nM; IC50 (FGFR2): 15 nM |
| COc1cc(Nc2ncc3c(n2)N(C2CCN(C(=O)/C=C/CN(C)C)CC2)C(=O)N(c2c(Cl)c(OC)cc(OC)c2Cl)C3)ccc1F [Compound 118, (E)-3-(2,6-dichloro-3,5-dimethoxyphenyl)-1-(1-(4-(dimethylamino)but-2-enoyl)piperidin-4-yl)-7-((4-fluoro-3-methoxyphenyl)amino)-3,4-dihydropyrimido[4,5-d] pyrimidin-2(1H)-one] | < 100 nM and 9.6 nM | 2.4 nM |  |  |  |  |  |  |  |
| CNc1ncc2c(n1)N(CCCNC(=O)/C=C/CN(C)C)C(=O)N(c1c(Cl)c(OC)cc(OC)c1Cl)C2 [Compound 125, (E)-N-(3-(3-(2,6-dichloro-3,5-dimethoxyphenyl)-7-(methylamino)-2-oxo-3,4-dihydropyrimido[4,5-d]pyrimidin-1(2H)-yl)propyl)-4-(dimethylamino)but-2-enamide] | > 1000 nM | 51 nM |  |  |  |  |  |  | IC50 (FGFR2): 6.5 nM |
| CNc1ncc2cc(-c3c(Cl)c(OC)cc(OC)c3Cl)c(=O)n(C3CCN(C(=O)/C=C/C[N+](C)(C)Cc4c([N+](=O)[O-])ncn4C)CC3)c2n1.[Br-] [Compound 208, (E)-4-(4-(6-(2,6-dichloro-3,5-dimethoxyphenyl)-2-(methylamino)-7-oxopyrido[2,3-d]pyrimidin-8(7H)-yl)piperidin-1-yl)-N,N-dimethyl-N-((1-methyl-4-nitro-1H-imidazol-5-yl)methyl)-4-oxobut-2-en-1-aminium bromide] |  |  | significant anti-tumour activity | 4150 nM | 2580 nM | 5 | 3 nM | 13 nM | time for tumours to reach 4 times relative tumour volume (RTV4) ([4]; control 12 days): ~24 days |
| COc1cc(OC)c(Cl)c(-c2cc3cnc(NC(C)C)nc3n(C3CCN(C(=O)/C=C/C[N+](C)(C)Cc4c([N+](=O)[O-])ncn4C)CC3)c2=O)c1Cl.[Br-] [Compound 209, (E)-4-(4-(6-(2,6-dichloro-3,5-dimethoxyphenyl)-2-(isopropylamino)-7-oxopyrido[2,3-d]pyrimidin-8(7H)-yl)piperidin-1-yl)-N,N-dimethyl-N-((1-methyl-4-nitro-1H-imidazol-5-yl)methyl)-4-oxobut-2-en-1-aminium bromide] |  |  | significant anti-tumour activity | 1480 nM | 1570 nM | 68 | 4 nM | 269 nM | Hypoxic Cytotoxicity Ratio (HCR), H520 (H520 cells): 36; IC50 (H520 cells; [10]): 41 nM |
| COc1cc(OC)c(Cl)c(-c2cc3cnc(Nc4ccccc4)nc3n(C3CCN(C(=O)/C=C/C[N+](C)(C)Cc4c([N+](=O)[O-])ncn4C)CC3)c2=O)c1Cl.[Br-] [Compound 211, (E)-4-(4-(6-(2,6-dichloro-3,5-dimethoxyphenyl)-7-oxo-2-(phenylamino)pyrido[2,3-d]pyrimidin-8(7H)-yl)piperidin-1-yl)-N,N-dimethyl-N-((1-methyl-4-nitro-1H-imidazol-5-yl)methyl)-4-oxobut-2-en-1-aminium bromide] |  |  | significant anti-tumour activity | 817 nM | 754 nM | 16 | 12 nM | 199 nM | Hypoxic Cytotoxicity Ratio (HCR), H520 (H520 cells): 20; IC50 (H520 cells; [10]): 41 nM |
| COc1cc(OC)c(Cl)c(-c2cc3cnc(NC(C)C)nc3n(Cc3cccc(NC(=O)/C=C/C[N+](C)(C)Cc4c([N+](=O)[O-])ncn4C)c3)c2=O)c1Cl.[Br-] [Compound 213, (E)-4-((3-((6-(2,6-dichloro-3,5-dimethoxyphenyl)-2-(isopropylamino)-7-oxopyrido[2,3-d]pyrimidin-8(7H)-yl)methyl)phenyl)amino)-N,N-dimethyl-N-((1-methyl-4-nitro-1H-imidazol-5-yl)methyl)-4-oxobut-2-en-1-aminium bromide] |  |  | significant anti-tumour activity |  |  | 5 | 7 nM | 40 nM |  |
